Laboratory results from ChEMBL document CHEMBL1201862, “PubChem BioAssay data set” (2004).
Activity calls are given as the source filed them.

Key:
[1] = target: Proto-oncogene tyrosine-protein kinase receptor Ret (Homo sapiens, UniProt P07949); assay type: functional;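 note: measured within a kinome-wide profiling panel, RET as the panel member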
[2] = target: Dual specificity tyrosine-phosphorylation-regulated kinase 1B (Homo sapiens, UniProt Q9Y463); assay: Navigating the Kinome. Panel member name: DYRK1B; assay type: functional
[3] = target: Tyrosine-protein kinase receptor TYRO3 (Homo sapiens, UniProt Q06418); assay type: functional;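 note: TYRO3 value obtained as one member of a kinome-wide profiling panel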
[4] = target: Glycogen synthase kinase-3 beta (Homo sapiens, UniProt P49841); assay: Inhibition of Human GSK-3 beta Activity Measured in Biochemical System Using Microfluidics - 2063-05_Inhibitor_Dose_DryPowder_Activity_Set2. [Related pubchem assays (depositor defined):AID2709]
[5] = target: Glycogen synthase kinase-3 alpha (Homo sapiens, UniProt P49840); assay: Inhibition of Human GSK-3 alpha Activity Measured in Biochemical System Using Microfluidics - 2063-06_Inhibitor_Dose_DryPowder_Activity_Set2. [Related pubchem assays (depositor defined):AID2709]
[6] = system: INS1; assay: suppression of cytokine-induced beta-cell apoptosis – INS-1E, caspase luminescence, dry powder, beta-cell apoptosis inhibitor project, dose response (AID 488848); assay type: functional, cell-based; conditions: Rattus norvegicus
[7] = system: INS1; assay: suppression of NO production in INS-1E cells – cell-based, Griess absorbance, dry powder, set 2, dose response (AID 488868); assay type: functional; conditions: Rattus norvegicus
[8] = system: INS1; assay: INS-1E mitochondrial potential rescue under cytokines – cell-based, JC-1 fluorescence ratio, dry powder, dose response (AID 488931); assay type: functional; conditions: Rattus norvegicus
[9] = system: INS1; assay: beta-cell survival under cytokine stress – INS-1E, ATP luminescence, dry powder, dose response (AID 488844); assay type: functional, cell-based; conditions: Rattus norvegicus
[10] = system: Candida albicans; assay: Candida growth inhibition combined with fluconazole – CaCi-2 strain, Alamar Blue, dry powder, set 3, dose response (AID 488907); assay type: functional, organism-based
[11] = system: Candida albicans; assay: resistant Candida growth with fluconazole co-treatment – CaCi-8 strain, Alamar Blue, dry powder, set 3, dose response (AID 488905); assay type: functional, organism-based
[12] = Vero cell cytotoxicity, cytotoxicity control for M. tuberculosis inhibitor project, purified and synthesized samples, set 3 (AID 504684); assay type: functional
[13] = A Cell Based Secondary Assay to Explore Cytotoxicity in THP-1 Cells of Compounds that Modulate Mycobacterium tuberculosis in Media Containing Glycerol versus Media without Glycerol (2).; assay type: functional
[14] = A Cell Based Secondary Assay to Explore Cytotoxicity in HepG2 Cells of Compounds that Modulate Mycobacterium tuberculosis in Media Containing Glycerol versus Media without Glycerol (2).; assay type: functional
[15] = Luminescence Cell-Based Dose Retest to Confirm Inhibitors of Cancer Stem Cells. [Related pubchem assays (depositor defined):AID2717, AID2721]; assay type: functional; conditions: Homo sapiens
[16] = target: Cyclin-dependent kinase 5 (Homo sapiens, UniProt Q00535); assay type: functional;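 note: CDK5 measured as one member of a kinase profiling panel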
[17] = target: Platelet-derived growth factor receptor alpha (Homo sapiens, UniProt P16234); assay: Navigating the Kinome. Panel member name: PDGFRA; assay type: functional
[18] = target: Mitogen-activated protein kinase 8 (Homo sapiens, UniProt P45983); assay type: functional;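 note: value comes from one member of a kinome-wide kinase profiling panel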
[19] = target: Dual specificity protein kinase CLK4 (Homo sapiens, UniProt Q9HAZ1); assay type: functional
[20] = target: Vascular endothelial growth factor receptor 2 (Homo sapiens, UniProt P35968); assay type: functional
[21] = target: Cyclin-dependent kinase 19 (Homo sapiens, UniProt Q9BWU1); assay: Navigating the Kinome. Panel member name: CDC2L6; assay type: functional
[22] = target: Dual specificity mitogen-activated protein kinase kinase 1 (Homo sapiens, UniProt Q02750); assay: Navigating the Kinome. Panel member name: MAP2K1; assay type: functional
[23] = target: cAMP-dependent protein kinase catalytic subunit alpha (Homo sapiens, UniProt P17612); assay type: functional
[24] = target: Dual specificity tyrosine-phosphorylation-regulated kinase 1A (Homo sapiens, UniProt Q13627); assay type: functional;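 note: measured against DYRK1A as one member of a broad kinome profiling panel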
[25] = target: Aurora kinase A (Homo sapiens, UniProt O14965); assay type: functional;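 note: value from the Navigating the Kinome kinase panel profiling, panel entry STK6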
[26] = target: Macrophage colony-stimulating factor 1 receptor (Homo sapiens, UniProt P07333); assay type: functional;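 note: value comes from the Navigating the Kinome screening panel, CSF1R member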
[27] = target: Protein kinase C theta type (Homo sapiens, UniProt Q04759); assay: Navigating the Kinome. Panel member name: PRKCQ; assay type: functional
[28] = target: Cyclin-dependent kinase 9 (Homo sapiens, UniProt P50750); assay type: functional;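 note: value from the CDK9 entry of a kinome-spanning kinase panel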
[29] = target: T1, Sentrin-specific protease 7 (Homo sapiens, UniProt Q9BQF6); assay: inhibition of human SENP7 cleavage activity – biochemical, luminescence, set 2, SAR follow-up (AID 588600); assay type: functional
T1 sequence (Q9BQF6 whole entry): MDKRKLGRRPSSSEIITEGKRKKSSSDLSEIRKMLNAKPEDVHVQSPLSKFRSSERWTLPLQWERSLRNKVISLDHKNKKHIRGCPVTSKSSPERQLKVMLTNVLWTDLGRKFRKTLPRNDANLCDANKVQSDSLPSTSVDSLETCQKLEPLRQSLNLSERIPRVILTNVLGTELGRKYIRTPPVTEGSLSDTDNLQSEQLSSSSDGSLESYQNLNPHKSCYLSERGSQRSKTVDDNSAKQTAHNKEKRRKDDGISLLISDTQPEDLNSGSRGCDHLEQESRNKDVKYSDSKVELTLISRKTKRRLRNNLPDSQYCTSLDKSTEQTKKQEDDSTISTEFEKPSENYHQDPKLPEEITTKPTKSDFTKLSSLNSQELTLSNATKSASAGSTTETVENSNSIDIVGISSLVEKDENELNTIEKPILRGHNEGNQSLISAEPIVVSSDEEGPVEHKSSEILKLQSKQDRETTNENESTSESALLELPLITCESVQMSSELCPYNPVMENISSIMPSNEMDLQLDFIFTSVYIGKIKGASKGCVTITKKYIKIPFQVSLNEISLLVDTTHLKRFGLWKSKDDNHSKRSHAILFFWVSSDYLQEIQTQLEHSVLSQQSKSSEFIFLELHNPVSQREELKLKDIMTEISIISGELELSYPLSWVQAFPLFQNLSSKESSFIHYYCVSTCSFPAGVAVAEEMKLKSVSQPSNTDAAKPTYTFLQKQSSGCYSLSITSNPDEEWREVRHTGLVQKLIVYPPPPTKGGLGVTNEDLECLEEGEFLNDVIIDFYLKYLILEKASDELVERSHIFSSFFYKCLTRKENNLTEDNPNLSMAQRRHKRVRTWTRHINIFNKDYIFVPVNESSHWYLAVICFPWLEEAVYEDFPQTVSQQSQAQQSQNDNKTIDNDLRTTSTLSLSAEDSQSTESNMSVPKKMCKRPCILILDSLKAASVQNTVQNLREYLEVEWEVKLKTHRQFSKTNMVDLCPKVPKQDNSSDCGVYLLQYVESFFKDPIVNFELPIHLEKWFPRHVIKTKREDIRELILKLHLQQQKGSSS

[30] = target: T2, Caspase-3 (Homo sapiens, UniProt P42574); assay: inhibition of recombinant caspase-3 activity – biochemical, luminescence, set 2, selectivity assay for SENP protease inhibitor project, SAR follow-up (AID 588599); assay type: functional
T2 sequence (P42574 whole entry): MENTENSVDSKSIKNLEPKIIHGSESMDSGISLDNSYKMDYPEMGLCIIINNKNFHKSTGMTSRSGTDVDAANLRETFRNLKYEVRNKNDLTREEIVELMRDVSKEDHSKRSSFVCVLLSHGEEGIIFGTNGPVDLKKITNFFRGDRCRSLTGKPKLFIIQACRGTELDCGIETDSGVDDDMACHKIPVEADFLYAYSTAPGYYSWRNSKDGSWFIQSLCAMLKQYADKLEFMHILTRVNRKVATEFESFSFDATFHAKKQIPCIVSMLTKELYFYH

[31] = target: T3, Sentrin-specific protease 6 (Homo sapiens, UniProt Q9GZR1); assay: inhibition of human SENP6 catalytic domain – biochemical, luminescence, set 2, SAR follow-up (AID 588598); assay type: functional
T3 sequence (Q9GZR1 whole entry): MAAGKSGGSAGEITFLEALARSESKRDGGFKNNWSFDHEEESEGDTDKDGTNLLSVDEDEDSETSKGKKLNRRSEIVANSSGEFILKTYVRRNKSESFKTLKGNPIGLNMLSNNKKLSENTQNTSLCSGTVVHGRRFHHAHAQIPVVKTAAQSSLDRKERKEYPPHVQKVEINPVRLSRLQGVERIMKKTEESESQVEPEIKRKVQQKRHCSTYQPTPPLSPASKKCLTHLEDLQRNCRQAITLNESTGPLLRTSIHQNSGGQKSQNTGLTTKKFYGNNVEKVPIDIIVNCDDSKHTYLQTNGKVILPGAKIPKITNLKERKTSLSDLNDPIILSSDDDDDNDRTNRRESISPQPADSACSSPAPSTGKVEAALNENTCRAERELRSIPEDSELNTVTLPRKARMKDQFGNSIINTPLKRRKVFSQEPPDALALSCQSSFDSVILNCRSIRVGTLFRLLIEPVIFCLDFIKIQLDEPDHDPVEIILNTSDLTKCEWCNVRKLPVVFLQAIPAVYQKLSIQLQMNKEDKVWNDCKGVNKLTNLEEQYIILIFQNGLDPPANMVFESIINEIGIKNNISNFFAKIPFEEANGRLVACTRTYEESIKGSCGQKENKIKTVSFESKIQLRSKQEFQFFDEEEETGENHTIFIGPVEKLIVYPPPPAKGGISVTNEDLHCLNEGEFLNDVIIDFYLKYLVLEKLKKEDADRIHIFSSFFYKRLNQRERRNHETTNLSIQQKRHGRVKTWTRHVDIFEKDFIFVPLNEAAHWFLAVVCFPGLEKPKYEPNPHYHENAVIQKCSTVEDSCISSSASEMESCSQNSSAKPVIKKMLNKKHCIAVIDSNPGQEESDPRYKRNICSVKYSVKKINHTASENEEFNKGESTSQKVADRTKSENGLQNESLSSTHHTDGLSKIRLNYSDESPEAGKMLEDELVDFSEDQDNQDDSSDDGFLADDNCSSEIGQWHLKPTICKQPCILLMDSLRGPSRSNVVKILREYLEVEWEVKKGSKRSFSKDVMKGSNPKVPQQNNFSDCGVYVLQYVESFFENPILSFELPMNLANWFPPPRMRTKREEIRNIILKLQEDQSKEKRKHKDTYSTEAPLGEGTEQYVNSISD

[32] = target: T4, Sentrin-specific protease 8 (Homo sapiens, UniProt Q96LD8); assay: inhibition of sentrin protease 8 – biochemical, luminescence, set 2, SAR follow-up (AID 588601); assay type: functional
T4 sequence (Q96LD8 whole entry): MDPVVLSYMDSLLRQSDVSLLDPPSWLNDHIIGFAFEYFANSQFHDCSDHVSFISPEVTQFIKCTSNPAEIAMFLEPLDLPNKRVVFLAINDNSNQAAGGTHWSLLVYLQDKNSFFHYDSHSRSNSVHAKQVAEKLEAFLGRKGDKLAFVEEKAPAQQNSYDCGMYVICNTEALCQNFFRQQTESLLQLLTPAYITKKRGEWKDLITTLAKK

[33] = system: HEK293; assay: EBV LMP1 TES2 canonical NF-kB signalling blockers – cell-based, HEK293, luciferase, cherry-pick, dose response (AID 588343); assay type: functional; conditions: Homo sapiens
[34] = target: Latent membrane protein 1 (Human herpesvirus 4 (strain B95-8), UniProt P03230); assay: LMP1 TES1 pathway selectivity over dsRED control – imaging, HEK293T, dual-color eGFP/dsRED, cherry-picks, selectivity assay for LMP1 NF-kB inhibitor project, dose response (AID 588398); assay type: functional, cell-based

Sequence of Dual specificity tyrosine-phosphorylation-regulated kinase 1B (Q9Y463 whole entry): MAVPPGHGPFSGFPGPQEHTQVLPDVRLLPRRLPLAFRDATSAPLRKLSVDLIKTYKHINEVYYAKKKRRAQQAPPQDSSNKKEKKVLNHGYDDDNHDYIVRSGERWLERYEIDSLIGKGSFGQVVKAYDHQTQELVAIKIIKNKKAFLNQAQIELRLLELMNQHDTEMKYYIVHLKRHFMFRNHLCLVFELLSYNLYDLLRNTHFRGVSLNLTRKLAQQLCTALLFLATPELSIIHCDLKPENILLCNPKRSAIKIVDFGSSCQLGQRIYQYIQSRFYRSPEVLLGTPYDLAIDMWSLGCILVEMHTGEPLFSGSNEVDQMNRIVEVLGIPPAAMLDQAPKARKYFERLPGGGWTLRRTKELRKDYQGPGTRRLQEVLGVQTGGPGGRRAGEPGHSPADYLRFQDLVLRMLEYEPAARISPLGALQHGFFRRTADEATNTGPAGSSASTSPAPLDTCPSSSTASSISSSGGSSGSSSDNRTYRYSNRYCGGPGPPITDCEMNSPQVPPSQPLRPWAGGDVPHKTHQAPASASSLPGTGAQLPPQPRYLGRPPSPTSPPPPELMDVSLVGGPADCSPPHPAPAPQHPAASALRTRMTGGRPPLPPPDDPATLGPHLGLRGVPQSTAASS
Sequence of Dual specificity protein kinase CLK4 (Q9HAZ1 whole entry): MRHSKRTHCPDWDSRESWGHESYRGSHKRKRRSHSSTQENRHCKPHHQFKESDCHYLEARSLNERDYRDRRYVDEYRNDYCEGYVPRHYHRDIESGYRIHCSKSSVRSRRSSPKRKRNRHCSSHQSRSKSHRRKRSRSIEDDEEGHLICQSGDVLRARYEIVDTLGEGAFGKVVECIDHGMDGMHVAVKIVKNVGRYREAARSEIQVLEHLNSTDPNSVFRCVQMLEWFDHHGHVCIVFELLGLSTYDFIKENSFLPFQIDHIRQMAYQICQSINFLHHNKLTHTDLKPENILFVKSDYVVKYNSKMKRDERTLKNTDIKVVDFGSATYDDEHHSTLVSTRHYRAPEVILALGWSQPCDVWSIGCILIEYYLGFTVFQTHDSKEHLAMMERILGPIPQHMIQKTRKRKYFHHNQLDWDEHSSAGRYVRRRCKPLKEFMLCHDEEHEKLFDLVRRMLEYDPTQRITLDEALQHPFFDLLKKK
Sequence of Aurora kinase A (O14965 whole entry): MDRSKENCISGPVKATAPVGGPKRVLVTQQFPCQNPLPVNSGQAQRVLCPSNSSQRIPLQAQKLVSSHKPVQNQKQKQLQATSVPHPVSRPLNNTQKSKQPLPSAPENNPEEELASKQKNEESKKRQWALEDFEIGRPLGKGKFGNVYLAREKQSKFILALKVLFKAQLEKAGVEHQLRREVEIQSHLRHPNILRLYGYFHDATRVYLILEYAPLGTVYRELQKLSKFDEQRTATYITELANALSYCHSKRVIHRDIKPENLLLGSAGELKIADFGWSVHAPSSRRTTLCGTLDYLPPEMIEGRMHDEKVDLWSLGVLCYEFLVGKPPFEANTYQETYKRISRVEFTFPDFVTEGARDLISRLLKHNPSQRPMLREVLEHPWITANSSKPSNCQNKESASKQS
Sequence of Macrophage colony-stimulating factor 1 receptor (P07333 whole entry): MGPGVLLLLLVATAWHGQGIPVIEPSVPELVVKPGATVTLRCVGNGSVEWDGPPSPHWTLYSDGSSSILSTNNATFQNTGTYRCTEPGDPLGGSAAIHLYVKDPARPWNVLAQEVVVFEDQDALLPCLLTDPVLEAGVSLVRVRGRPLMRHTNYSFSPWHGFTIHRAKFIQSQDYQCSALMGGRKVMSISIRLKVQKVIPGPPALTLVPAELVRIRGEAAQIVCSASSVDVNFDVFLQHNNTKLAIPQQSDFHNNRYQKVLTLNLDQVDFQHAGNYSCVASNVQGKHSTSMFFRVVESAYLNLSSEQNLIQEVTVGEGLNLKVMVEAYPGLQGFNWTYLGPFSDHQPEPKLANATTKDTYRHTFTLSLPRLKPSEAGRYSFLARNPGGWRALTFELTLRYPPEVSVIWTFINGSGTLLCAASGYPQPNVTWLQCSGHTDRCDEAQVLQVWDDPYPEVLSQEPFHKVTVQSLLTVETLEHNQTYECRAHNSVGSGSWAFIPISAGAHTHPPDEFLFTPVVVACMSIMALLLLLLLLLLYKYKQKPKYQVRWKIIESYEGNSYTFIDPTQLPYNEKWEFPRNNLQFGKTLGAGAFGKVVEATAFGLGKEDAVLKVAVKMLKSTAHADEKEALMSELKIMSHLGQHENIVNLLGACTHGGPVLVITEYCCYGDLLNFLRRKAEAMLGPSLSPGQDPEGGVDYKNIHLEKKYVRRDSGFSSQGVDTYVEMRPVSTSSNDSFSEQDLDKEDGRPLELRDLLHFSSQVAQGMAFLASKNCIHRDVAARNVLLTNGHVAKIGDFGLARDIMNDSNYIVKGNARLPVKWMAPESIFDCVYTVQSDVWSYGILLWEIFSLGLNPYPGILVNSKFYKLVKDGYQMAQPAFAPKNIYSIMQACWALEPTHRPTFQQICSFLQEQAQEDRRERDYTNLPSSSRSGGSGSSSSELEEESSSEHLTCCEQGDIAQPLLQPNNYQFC
Sequence of Proto-oncogene tyrosine-protein kinase receptor Ret (P07949 whole entry): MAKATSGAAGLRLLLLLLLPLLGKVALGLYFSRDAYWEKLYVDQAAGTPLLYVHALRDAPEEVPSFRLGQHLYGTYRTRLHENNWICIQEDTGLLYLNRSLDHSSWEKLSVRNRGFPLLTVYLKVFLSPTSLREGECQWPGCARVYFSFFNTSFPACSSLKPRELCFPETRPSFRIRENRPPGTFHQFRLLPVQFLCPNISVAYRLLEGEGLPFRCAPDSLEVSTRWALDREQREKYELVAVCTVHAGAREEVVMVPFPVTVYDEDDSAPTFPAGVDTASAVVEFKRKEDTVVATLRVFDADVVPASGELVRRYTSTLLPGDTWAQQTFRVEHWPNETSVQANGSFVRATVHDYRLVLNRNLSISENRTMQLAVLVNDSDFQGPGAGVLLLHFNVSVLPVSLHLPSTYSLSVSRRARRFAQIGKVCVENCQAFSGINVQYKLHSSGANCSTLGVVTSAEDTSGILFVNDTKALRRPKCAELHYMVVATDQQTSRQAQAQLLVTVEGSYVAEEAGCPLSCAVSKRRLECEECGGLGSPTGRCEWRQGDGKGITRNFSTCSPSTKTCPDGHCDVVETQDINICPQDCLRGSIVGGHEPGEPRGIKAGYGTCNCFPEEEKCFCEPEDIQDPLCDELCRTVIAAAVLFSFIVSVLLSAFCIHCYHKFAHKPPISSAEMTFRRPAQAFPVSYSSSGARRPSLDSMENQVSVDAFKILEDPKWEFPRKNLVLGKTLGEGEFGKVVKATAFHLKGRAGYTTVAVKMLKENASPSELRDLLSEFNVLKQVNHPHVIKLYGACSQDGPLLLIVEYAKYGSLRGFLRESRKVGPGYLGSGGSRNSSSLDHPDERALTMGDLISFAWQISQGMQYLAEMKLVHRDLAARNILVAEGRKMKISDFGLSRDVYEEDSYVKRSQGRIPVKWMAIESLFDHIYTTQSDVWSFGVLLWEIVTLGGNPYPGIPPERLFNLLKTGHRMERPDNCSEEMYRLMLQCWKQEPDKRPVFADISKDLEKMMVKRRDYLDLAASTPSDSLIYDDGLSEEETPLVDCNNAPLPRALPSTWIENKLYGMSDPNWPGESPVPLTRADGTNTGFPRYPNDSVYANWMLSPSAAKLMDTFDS
Sequence of Platelet-derived growth factor receptor alpha (P16234 whole entry): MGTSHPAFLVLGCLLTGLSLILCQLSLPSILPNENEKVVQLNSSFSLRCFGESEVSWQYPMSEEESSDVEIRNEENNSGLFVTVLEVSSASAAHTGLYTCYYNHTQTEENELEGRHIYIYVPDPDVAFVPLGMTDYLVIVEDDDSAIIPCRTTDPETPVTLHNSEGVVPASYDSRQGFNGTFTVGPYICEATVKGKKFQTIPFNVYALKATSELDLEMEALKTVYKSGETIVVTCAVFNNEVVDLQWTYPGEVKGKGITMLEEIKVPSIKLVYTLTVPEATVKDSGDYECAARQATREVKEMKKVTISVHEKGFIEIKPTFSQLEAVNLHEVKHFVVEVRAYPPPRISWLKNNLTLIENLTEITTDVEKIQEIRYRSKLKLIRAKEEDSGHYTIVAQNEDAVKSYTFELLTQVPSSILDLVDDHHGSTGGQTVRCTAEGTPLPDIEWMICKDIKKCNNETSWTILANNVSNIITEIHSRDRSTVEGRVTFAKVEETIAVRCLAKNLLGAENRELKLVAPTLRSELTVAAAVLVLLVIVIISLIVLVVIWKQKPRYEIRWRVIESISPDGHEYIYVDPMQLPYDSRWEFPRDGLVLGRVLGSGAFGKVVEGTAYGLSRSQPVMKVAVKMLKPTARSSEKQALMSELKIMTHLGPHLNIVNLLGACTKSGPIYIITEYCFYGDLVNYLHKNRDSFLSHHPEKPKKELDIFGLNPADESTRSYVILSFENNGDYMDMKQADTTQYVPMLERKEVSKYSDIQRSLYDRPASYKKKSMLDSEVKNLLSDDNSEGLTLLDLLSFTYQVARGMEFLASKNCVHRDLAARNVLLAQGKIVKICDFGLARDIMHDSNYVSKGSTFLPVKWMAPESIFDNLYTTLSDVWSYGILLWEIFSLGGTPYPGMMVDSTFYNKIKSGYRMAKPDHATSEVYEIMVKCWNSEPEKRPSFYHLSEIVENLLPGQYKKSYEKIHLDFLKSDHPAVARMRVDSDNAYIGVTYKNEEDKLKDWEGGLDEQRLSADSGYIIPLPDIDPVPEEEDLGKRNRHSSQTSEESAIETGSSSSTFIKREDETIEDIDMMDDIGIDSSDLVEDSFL
Sequence of Cyclin-dependent kinase 9 (P50750 whole entry): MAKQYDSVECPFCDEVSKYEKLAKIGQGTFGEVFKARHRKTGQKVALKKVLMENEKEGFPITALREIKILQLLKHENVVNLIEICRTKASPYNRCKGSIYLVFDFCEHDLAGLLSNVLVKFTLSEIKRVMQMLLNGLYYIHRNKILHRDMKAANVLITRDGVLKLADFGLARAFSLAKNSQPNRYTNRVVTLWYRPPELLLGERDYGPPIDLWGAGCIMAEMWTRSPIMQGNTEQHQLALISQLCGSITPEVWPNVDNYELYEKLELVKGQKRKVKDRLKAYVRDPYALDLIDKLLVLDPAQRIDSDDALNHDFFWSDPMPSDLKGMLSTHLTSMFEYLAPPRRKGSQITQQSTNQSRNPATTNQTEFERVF

O=C1NS(=O)(=O)c2cccc(Cl)c21
active: Ki [1] 100 µM | Ki [2] 50.1 µM | Ki [3] 31.6 µM

CN(C)Cc1c(C(=O)N/N=C/c2ccncc2)nnn1-c1nonc1N
active: AC50 [4] 0.255 µM | AC50 [5] 0.597 µM

Cc1ccc(S(=O)(=O)N(C)C[C@@H]2Oc3c(NC(=O)Nc4ccc(F)cc4)cccc3C(=O)N([C@@H](C)CO)C[C@H]2C)cc1
active: AC50 [6] 27.4 µM | AC50 [7] 41 µM | AC50 [8] 83.3 µM | AC50 [9] 28.7 µM

O=C(c1cccc(Cl)c1)N1CCN(c2ccccn2)CC1
active: AC50 [10] 0.073 µM | AC50 [11] < 0.195 µM

S=c1[nH]cnc2nc[nH]c12 [MERCAPTOPURINE]
active: CC50 [12] 76.5 µM | CC50 [13] 30.4 µM | CC50 [14] 5.55 µM | AC50 [15] 0.561 µM

Cc1[nH]c(=O)oc(=O)c1-c1ccccc1
active: Ki [16] 63.1 µM | Ki [17] 63.1 µM | Ki [18] 79.4 µM | Ki [19] 20 µM

NC(=O)c1cnn2c(-c3ccccc3)ccnc12
active: Ki [2] 15.8 µM | Ki [22] 50.1 µM | Ki [19] 3.98 µM
inactive: Ki [20] > 100 µM | Ki [21] > 100 µM | Ki [23] > 50.1 µM | Ki [24] > 79.4 µM | Ki [25] > 63.1 µM | Ki [26] > 100 µM | Ki [27] > 100 µM | Ki [28] > 63.1 µM

COc1ccc(Br)c(C(=O)Nc2nc3ccc(C)cc3s2)c1
active: IC50 [29] 2.13 µM | IC50 [30] 3.57 µM | IC50 [31] 2.02 µM | IC50 [32] 1.78 µM

c1ccc(C2c3[nH]c4ccccc4c3CCN2Cc2cccn2-c2ccccn2)nc1 (stereo unspecified)
active: AC50 [33] 110 µM | AC50 [34] 29.8 µM
